Results: patent US12065443B2, “Compounds and pharmaceutical compositions thereof for the treatment of diseases” (priority 2017, dated 2024)

How the values were obtained:
Test in all cases: biochemical
SIK3 = target: T1, SIK3 (Homo sapiens, UniProt Q9Y2K2)
T1 construct: purchased SignalChem S12-11G-100
In short: (§1)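 Read-out: ^33P incorporated into AMARA peptide, counted on filter plates, taken as kinase activity. Reactions start on addition of labeled/unlabeled ATP to enzyme plus substrate and end with phosphoric acid. Controls: 1% DMSO (negative) and 10 μM staurosporine (positive), final.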

SIK2 = target: T2, SIK2 (Homo sapiens, UniProt Q9H0K1); conditions: 33P radioactive SIK kinase assay, AMARA peptide, 10 μM ATP
T2 construct: purchased ThermoFisher Scientific PV4792
T2 sequence (Q9H0K1 whole entry): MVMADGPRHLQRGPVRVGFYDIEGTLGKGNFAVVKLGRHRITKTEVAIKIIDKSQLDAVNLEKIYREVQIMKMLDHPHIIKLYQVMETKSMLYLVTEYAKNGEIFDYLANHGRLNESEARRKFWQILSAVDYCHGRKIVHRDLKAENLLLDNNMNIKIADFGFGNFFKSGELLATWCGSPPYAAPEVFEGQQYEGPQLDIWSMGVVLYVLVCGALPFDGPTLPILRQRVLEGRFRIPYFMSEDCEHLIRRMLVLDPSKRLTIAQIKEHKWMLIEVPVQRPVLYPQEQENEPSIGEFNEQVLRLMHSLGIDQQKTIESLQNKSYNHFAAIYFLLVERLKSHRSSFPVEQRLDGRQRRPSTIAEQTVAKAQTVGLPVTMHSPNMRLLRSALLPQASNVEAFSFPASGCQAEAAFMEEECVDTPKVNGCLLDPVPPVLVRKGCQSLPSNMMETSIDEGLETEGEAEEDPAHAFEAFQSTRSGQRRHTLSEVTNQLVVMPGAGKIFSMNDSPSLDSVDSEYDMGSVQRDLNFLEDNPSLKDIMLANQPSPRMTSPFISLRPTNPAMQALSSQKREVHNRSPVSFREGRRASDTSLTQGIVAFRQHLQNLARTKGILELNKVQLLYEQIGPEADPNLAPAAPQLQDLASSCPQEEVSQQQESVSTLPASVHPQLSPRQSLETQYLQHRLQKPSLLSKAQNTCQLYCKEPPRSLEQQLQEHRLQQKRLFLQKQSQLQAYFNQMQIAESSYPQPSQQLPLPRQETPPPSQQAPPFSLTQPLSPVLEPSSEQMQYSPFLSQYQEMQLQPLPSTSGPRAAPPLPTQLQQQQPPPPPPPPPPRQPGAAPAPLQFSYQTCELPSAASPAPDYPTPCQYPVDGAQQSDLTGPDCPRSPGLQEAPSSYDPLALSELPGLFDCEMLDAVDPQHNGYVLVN
In short: as §1

SIK1 = target: T3, SIK1 (Homo sapiens, UniProt P57059); conditions: 33P radioactive SIK kinase assay, AMARA peptide, 10 μM ATP; read-out: SIK1 IC50
T3 construct: purchased Carna Biosciences 02-131
T3 sequence (P57059 whole entry): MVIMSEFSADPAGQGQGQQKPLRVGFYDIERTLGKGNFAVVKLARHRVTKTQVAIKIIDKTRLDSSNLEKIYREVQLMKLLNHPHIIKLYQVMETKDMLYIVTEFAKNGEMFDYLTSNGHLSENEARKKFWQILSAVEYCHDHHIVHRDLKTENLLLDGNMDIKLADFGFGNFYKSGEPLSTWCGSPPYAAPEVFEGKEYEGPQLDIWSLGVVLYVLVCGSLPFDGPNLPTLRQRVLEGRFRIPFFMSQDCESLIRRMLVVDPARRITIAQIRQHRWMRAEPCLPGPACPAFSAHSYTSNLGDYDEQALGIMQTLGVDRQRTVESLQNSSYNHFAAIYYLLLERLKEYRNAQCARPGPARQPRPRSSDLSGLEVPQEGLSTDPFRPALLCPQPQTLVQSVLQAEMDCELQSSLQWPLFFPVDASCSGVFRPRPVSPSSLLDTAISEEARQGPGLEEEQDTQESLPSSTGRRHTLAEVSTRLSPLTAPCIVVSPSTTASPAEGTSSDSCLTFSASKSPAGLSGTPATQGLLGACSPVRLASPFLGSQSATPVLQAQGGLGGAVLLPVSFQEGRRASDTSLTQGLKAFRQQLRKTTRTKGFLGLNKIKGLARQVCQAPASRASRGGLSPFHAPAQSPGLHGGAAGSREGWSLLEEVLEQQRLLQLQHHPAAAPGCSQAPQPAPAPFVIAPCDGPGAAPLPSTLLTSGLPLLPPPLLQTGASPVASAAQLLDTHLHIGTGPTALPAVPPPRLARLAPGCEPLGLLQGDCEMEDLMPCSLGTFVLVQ
In short: as §1

T1 sequence (Q9Y2K2 whole entry): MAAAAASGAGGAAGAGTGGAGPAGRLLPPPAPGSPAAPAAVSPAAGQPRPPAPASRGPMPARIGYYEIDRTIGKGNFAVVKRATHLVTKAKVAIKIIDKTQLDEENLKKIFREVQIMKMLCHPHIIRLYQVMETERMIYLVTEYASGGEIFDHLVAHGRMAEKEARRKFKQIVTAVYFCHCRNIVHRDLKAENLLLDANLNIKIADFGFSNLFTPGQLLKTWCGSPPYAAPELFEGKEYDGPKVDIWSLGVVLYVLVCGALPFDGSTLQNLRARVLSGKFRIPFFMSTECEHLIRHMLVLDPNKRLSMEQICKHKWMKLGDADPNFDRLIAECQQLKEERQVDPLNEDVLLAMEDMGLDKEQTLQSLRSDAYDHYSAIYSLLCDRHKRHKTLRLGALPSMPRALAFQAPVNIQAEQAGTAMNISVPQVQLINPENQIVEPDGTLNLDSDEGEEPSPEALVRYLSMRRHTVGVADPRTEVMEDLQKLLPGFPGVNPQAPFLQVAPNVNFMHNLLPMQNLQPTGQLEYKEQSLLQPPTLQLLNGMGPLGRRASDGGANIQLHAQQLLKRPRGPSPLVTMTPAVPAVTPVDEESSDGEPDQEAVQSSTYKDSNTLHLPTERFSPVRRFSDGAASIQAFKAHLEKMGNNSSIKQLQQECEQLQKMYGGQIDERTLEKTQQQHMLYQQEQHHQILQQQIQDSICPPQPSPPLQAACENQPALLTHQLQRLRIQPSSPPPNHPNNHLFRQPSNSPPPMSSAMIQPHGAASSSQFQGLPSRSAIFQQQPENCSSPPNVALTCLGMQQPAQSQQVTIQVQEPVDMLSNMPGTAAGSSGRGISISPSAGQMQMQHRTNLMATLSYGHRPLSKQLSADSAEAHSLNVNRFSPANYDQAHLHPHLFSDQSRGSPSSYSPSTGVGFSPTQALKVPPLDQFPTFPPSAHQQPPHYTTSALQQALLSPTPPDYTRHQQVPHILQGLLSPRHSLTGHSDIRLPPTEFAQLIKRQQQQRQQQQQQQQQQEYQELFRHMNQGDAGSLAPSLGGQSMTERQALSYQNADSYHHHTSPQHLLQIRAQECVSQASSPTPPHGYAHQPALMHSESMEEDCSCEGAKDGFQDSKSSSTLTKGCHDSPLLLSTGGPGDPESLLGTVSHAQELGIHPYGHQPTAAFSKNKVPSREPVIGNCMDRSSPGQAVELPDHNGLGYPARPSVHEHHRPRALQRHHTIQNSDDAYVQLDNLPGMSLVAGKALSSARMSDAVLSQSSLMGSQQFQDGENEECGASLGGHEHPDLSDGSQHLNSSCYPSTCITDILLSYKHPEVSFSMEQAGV

SMILES | IC50 (SIK3) [nM] | IC50 (SIK2) [nM] | IC50 (SIK1) [nM]
COc1cc(-n2cnc3cc(-c4cnn(C)c4)ccc32)cc(OC)c1C(=O)N1CCC1 [compound 162, azetidin-1-yl-[2,6-dimethoxy-4-[5-(1-methylpyrazol-4-yl)benzimidazol-1-yl]phenyl]methanone] | 10 to 100 | 100 to 500 | 100 to 500
COc1cc(-n2cnc3cc(-c4cnn(C)c4)ccc32)cc(OC)c1C(=O)N[C@H]1CCCC[C@@H]1O [compound 164] | > 500 | 100 to 500 | 100 to 500
COc1cc(-c2cnc3cc(-c4cnn(C)c4)ccn23)cc(OC)c1C(=O)N[C@H]1CC[C@@H]1O [compound 170] | 0.01 to 10 | 0.01 to 10 | 10 to 100
COc1cc(-n2cnc3cc(-c4cnn(C)c4)ccc32)cc(OC)c1C(=O)N1CC(c2ccccc2)C1 [compound 180, [2,6-dimethoxy-4-[5-(1-methylpyrazol-4-yl)benzimidazol-1-yl]phenyl]-(3-phenylazrtidin-1-yl)methanone] | 100 to 500 | 100 to 500 | 10 to 100
COc1cc(-n2cnc3cc(-c4cnn(C)c4)ccc32)cc(OC)c1C(=O)N1C(C)CC1C (stereo not drawn) [compound 181, [2,6-dimethoxy-4-[5-(1-methylpyrazol-4-yl)benzimidazol-1-yl]phenyl]-(2,4-dimethylazetidin-1-yl)methanone] | > 500 | > 500 | > 500
COc1cc(-n2cnc3cc(-c4cnn(C)c4)ccc32)cc(OC)c1C(=O)N1CCC1C (stereo not drawn) [compound 182, [2,6-dimethoxy-4-[5-(1-methylpyrazol-4-yl)benzimidazol-1-yl]phenyl]-(2-methylazetidin-1-yl)methanone] | > 500 | > 500 | > 500
COc1cc(-n2cnc3cc(-c4cnn(C)c4)ccc32)cc(OC)c1C(=O)N1CC(CO)C1 [compound 183, [2,6-dimethoxy-4-[5-(1-methylpyrazol-4-yl)benzimidazol-1-yl]phenyl]-[3-(hydroxymethyl)azetidin-1-yl]methanone] | 100 to 500 | 100 to 500 | 100 to 500
COc1cc(-n2cnc3cc(-c4cnn(C)c4)ccc32)cc(OC)c1C(=O)N1CC(O)C1 [compound 184, [2,6-dimethoxy-4-[5-(1-methylpyrazol-4-yl)benzimidazol-1-yl]phenyl]-(3-hydroxyazetidin-1-yl)methanone] | 100 to 500 | 100 to 500 | 100 to 500
COc1cc(-n2cnc3cc(-c4cnn(C)c4)ccc32)cc(OC)c1C(=O)N1CC(N(C)C)C1 [compound 185, [2,6-dimethoxy-4-[5-(1-methylpyrazol-4-yl)benzimidazol-1-yl]phenyl]-[3-(dimethylamino)azetidin-1-yl]methanone] | > 500 | 100 to 500 | 100 to 500
COc1cc(-n2cnc3cc(-c4cnn(C)c4)ccc32)cc(OC)c1C(=O)N1CC(OCc2ccccc2)C1 [compound 186, (3-benzyloxyazetidin-1-yl)-[2,6-dimethoxy-4-[5-(1-methylpyrazol-4-yl)benzimidazol-1-yl]phenyl]methanone] | 100 to 500 | 100 to 500 | 10 to 100
COc1cc(-n2cnc3cc(-c4cnn(C)c4)ccc32)cc(OC)c1C(=O)N1CCC1c1ccccc1 (stereo not drawn) [compound 187, [2,6-dimethoxy-4-[5-(1-methylpyrazol-4-yl)benzimidazol-1-yl]phenyl]-(2-phenylazetidin-1-yl)methanone] | > 500 | > 500 | > 500
COc1cc(-n2cnc3cc(-c4cnn(C)c4)ccc32)cc(OC)c1C(=O)N1CC(N2CCOCC2)C1 [compound 188, [2,6-dimethoxy-4-[5-(1-methylpyrazol-4-yl)benzimidazol-1-yl]phenyl]-(3-morpholinoazetidin-1-yl)methanone] | > 500 | > 500 | > 500
COc1cc(-n2cnc3cc(-c4cnn(C)c4)ccc32)cc(OC)c1C(=O)N1C(C)CC1(C)C (stereo not drawn) [compound 189, [2,6-dimethoxy-4-[5-(1-methylpyrazol-4-yl)benzimidazol-1-yl]phenyl]-(2,2,4-trimethylazetidin-1-yl)methanone] | > 500 | > 500 | > 500
COc1cc(-n2cnc3cc(-c4cnn(C)c4)ccc32)cc(OC)c1C(=O)N1CC(OC)C1 [compound 190, [2,6-dimethoxy-4-[5-(1-methylpyrazol-4-yl)benzimidazol-1-yl]phenyl]-(3-methoxyazetidin-1-yl)methanone] | 100 to 500 | 10 to 100 | 10 to 100
COc1cc(-n2cnc3cc(-c4cnn(C)c4)ccc32)cc(OC)c1C(=O)N1CC(C2CCOCC2)C1 [compound 191, [2,6-dimethoxy-4-[5-(1-methylpyrazol-4-yl)benzimidazol-1-yl]phenyl]-(3-tetrahydropyran-4-ylazetidin-1-yl)methanone] | 100 to 500 | 100 to 500 | 100 to 500
COc1cc(-n2cnc3cc(-c4cnn(C)c4)ccc32)cc(OC)c1C(=O)N1CCC1CO (stereo not drawn) [compound 193, [2,6-dimethoxy-4-[5-(1-methylpyrazol-4-yl)benzimidazol-1-yl]phenyl]-[2-(hydroxymethyl)azetidin-1-yl]methanone] | > 500 | > 500 | > 500
COc1cc(-n2cnc3cc(-c4cnn(C)c4)ccc32)cc(OC)c1C(=O)N1CC2(COC2)C1 [compound 194] | 100 to 500 | 10 to 100 | 100 to 500
COc1cc(-n2cnc3cc(-c4cnn(C)c4)ccc32)cc(OC)c1C(=O)N1CC2(C1)CS(=O)(=O)C2 [compound 195, [2,6-dimethoxy-4-[5-(1-methylpyrazol-4-yl)benzimidazol-1-yl]phenyl]-(2,2-dioxo-2λ^6-thia-6-azaspiro[3.3]heptan-6-yl)methanone] | 100 to 500 | 100 to 500 | 100 to 500
COc1cc(-n2cnc3cc(-c4cnn(C)c4)ccc32)cc(OC)c1C(=O)N1CCC(c2ccccc2)C1 (stereo not drawn) [compound 196, [2,6-dimethoxy-4-[5-(1-methylpyrazol-4-yl)benzimidazol-1-yl]phenyl]-(3-phenylpyrrolidin-1-yl)methanone] | > 500 | > 500 | > 500
COc1cc(-n2cnc3cc(-c4cnn(C)c4)ccc32)cc(OC)c1C(=O)N1CCC(F)CC1 [compound 197, [2,6-dimetlioxy-4-[5-(1-methylpyrazol-4-yl)benzimidazol-1-yl]phenyl]-(4-fluoro-1-piperidyl)methanone] | > 500 | > 500 | > 500
COc1cc(-n2cnc3cc(-c4cnn(C)c4)ccc32)cc(OC)c1C(=O)N1CCC(OC(F)(F)F)CC1 [compound 198, [2,6-dimethoxy-4-[5-(1-methylpyrazol-4-yl)benzimidazol-1-yl]phenyl]-[4-(trifluoromethoxy)-1-piperidyl]methanone] | 100 to 500 | > 500 | 100 to 500
COc1cc(-n2cnc3cc(-c4cnn(C)c4)ccc32)cc(OC(F)F)c1C(=O)NC(C)(C)C [compound 199, N-tert-butyl-2-(difluoromethoxy)-6-methoxy-4-[5-(1-methylpyrazol-4-yl)benzimidazol-1-yl]benzamide] | > 500 | > 500 | > 500
COc1cc(-c2cnc3cc(-c4cnn(C)c4)ccn23)cc(OC)c1C(=O)NC(C(C)C)C(F)(F)F (stereo not drawn) [compound 200] | 10 to 100 | 10 to 100 | 10 to 100
COc1cc(-c2cnc3cc(-c4cnn(C)c4)ccn23)cc(OC)c1C(=O)N1CCC(F)(F)C1 [compound 211, (3,3-difluoropyrrolidin-1-yl)-[2,6-dimethoxy-4-[7-(1-methylpyrazol-4-yl)imidazo[1,2-a]pyridin-3-yl]phenyl]methanone] | 10 to 100 | 10 to 100 | 10 to 100
COc1cc(-c2cnc3cc(-c4cnn(C)c4)ccn23)cc(OC)c1C(=O)N1CCC(F)(F)CC1 [compound 212, (4,4-difluoro-1-piperidyl)-[2,6-dimethoxy-4-[7-(1-methylpyrazol-4-yl)imidazo[1,2-a]pyridin-3-yl]phenyl]methanone] | 100 to 500 | 10 to 100 | 100 to 500
COc1cc(-n2cnc3cc(-c4cnn(C)c4)ccc32)cc(OC)c1C(=O)N1CC(C)(O)C1 [compound 217, [2,6-dimethoxy-4-[5-(1-methylpyrazol-4-yl)benzimidazol-1-yl]phenyl]-(3-hydroxy-3-methyl-azetidin-1-yl)methanone] | 10 to 100 | 10 to 100 | 10 to 100
CCC1(O)CN(C(=O)c2c(OC)cc(-n3cnc4cc(-c5cnn(C)c5)ccc43)cc2OC)C1 [compound 218, [2,6-dimethoxy-4-[5-(1-methylpyrazol-4-yl)benzimidazol-1-yl]phenyl]-(3-ethyl-3-hydroxy-azetidin-1-yl)methanone] | 100 to 500 | 10 to 100 | 10 to 100
COc1cc(-n2cnc3cc(-c4cnn(C)c4)ccc32)cc(OC)c1C(=O)N1CC(O)(C2CC2)C1 [compound 220, (3-cyclopropyl-3-hydroxy-azetidin-1-yl)-[2,6-dimethoxy-4-[5-(1-methylpyrazol-4-yl)benzimidazol-1-yl]phenyl]methanone] | 10 to 100 | 10 to 100 | 10 to 100
COc1cc(-c2cnc3cc(-c4cc(C)no4)ccn23)cc(OC)c1C(=O)N[C@@H](C)C(F)(F)F [compound 224, 2,6-dimethoxy-4-[7-(3-methylisoxazol-5-yl)imidazo[1,2-a]pyridin-3-yl]-N-[(1S)-2,2,2-trifluoro-1-methyl-ethyl]benzamide] | 100 to 500 | 100 to 500 | 100 to 500
